# Target: T1, Pmar-Lig (Prochlorococcus marinus, UniProt A0A0A2ACP7)
# T1 construct: gene EU96_0746; codon-optimised synthetic gene in pDEST17; tag removed; three domains (DB, AD, OB); 432 residues modelled in wild-type crystals
# Assay: X-ray crystal structure, […] A
# Format: binding
# Details: post-step 3 complex with sealed DNA product; partial occupancy (adenine nucleobase 0.75, phosphate 0.5); some residual covalent DNA-adenylate; pH 6.5 crystallisation
# T1 sequence (A0A0A2ACP7 entry or part of it): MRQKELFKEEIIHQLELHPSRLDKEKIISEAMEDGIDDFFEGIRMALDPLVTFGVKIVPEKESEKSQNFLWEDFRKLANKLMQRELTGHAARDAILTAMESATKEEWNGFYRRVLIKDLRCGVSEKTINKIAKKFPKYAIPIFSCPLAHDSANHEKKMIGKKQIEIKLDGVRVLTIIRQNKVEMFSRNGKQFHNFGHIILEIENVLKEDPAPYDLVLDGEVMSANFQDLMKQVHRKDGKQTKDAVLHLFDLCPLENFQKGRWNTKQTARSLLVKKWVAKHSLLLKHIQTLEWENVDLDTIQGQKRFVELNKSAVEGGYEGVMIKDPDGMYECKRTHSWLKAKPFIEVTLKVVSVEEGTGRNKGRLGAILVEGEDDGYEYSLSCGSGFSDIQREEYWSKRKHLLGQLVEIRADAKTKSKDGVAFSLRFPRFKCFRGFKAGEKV
smiles,measurement,value
Nc1ncnc2c1ncn2[C@@H]1O[C@H](COP(=O)(O)O)[C@@H](O)[C@H]1O [AMP],"X-ray crystal structure, 1.99 A","with the DNA product retained in the active site, as well as residual AMP"
